Converted amounts (≈) assume the structure as drawn. Bounds are passed on as bounds.

The values that follow come from ChEMBL document CHEMBL1127356, “(Fluorocyclopropyl)quinolones. 2. Synthesis and Stereochemical structure-activity relationships of chiral 7-(7-amino-5-azaspiro[2.4]heptan-5-yl)-1-(2-fluorocyclopropyl)quinolone antibacterial agents” (J Med Chem, 1994).

The nature of data set [1]: Maximum concentration in plasma was determined by oral administration to rats at 20 mg/kg. The data set is classed as ADME, organism-based. More on the design: dose 20 mg/kg, route oral. The settings on record: rat.
The test system of data set [2] is Rattus norvegicus. In words: Urinary recovery by oral administration to rats in conjugate form of compound at 20 mg/kg. The data set is classed as ADME, organism-based, Urine. Details: dose 20 mg/kg, route oral. The conditions noted are these: in vivo.
A short description of data set [3]: Urinary recovery by oral administration to rats in unchanged form of compound at 20 mg/kg. The data set is classed as ADME, organism-based. Details: dose 20 mg/kg, route oral. The conditions noted are these: rat, urine, read-out: Urinary recovery.
Data set [4] deals with Enterobacter cloacae. In words: Minimum inhibitory concentration in vitro against […] (03400). The data set is classed as functional.
The next data set has as its system Escherichia coli. In words: Minimum inhibitory concentration in vitro against Escherichia coli (NIHJ). The data set is classed as functional. The conditions noted are these: Escherichia coli; read-out: MIC.
Another data set deals with Klebsiella pneumoniae. In words: Minimum inhibitory concentration in vitro against Klebsiella pneumoniae (type-2). The data set is classed as functional.
A further data set concerns Pseudomonas aeruginosa. In words: Minimum inhibitory concentration in vitro against Pseudomonas aeruginosa (32104). The data set is classed as functional. The conditions noted are these: Pseudomonas aeruginosa; read-out: MIC.
The next data set deals with Proteus vulgaris. In words: Minimum inhibitory concentration in vitro against Proteus vulgaris (08601). The data set is classed as functional. The conditions noted are these: Proteus vulgaris; read-out: MIC.
In data set [5] the test system is Staphylococcus aureus. In words: Minimum inhibitory concentration in vitro against […] (209P). The settings on record: Staphylococcus aureus; read-out: MIC. The data set is classed as functional.
The subject of another data set is Streptococcus pyogenes. In words: Minimum inhibitory concentration in vitro against Streptococcus pyogenes (G36). The data set is classed as functional. The settings on record: Streptococcus pyogenes; read-out: MIC.
The test system of data set [6] is Staphylococcus epidermidis. In words: Minimum inhibitory concentration in vitro against […] (56556). The data set is classed as functional. The settings on record: Staphylococcus epidermidis; read-out: MIC.
In a further data set the test system is Serratia marcescens. In words: Minimum inhibitory concentration in vitro against […]. The data set is classed as functional. The conditions noted are these: Serratia marcescens; read-out: MIC.
Another data set relates to Enterococcus faecalis. In words: Minimum inhibitory concentration in vitro against Streptococcus faecalis (ATCC 19433). The data set is classed as functional. The settings on record: Enterococcus faecalis, ATCC 19433; read-out: MIC.
Data set [7] concerns Enterobacter cloacae. In words: Minimum inhibitory concentration in vitro against Enterobacter cloacae (03400). The data set is classed as functional. The settings on record: Enterobacter cloacae; read-out: MIC.
The nature of data set [8]: Urinary recovery at 20 mg/kg was determined by oral administration to rats in unchanged form of compound. The data set is classed as ADME, organism-based. More on the design: dose 20 mg/kg, route oral. The settings on record: rat, urine, read-out: Urinary recovery.
Data set [9] deals with Rattus norvegicus. In words: Urinary recovery by oral administration to rats at 20 mg/kg in conjugate form of compound. The data set is classed as ADME, organism-based, Urine. Details: dose 20 mg/kg, route oral. The settings on record: in vivo.
Data set [10] relates to Staphylococcus aureus. In words: Minimum inhibitory concentration in vitro against Staphylococcus aureus (209P). The data set is classed as functional.
The test system of data set [11] is Staphylococcus epidermidis. In words: Minimum inhibitory concentration in vitro against Staphylococcus epidermis (56556). The data set is classed as functional.
Where [12] appears, read: Klebsiella pneumoniae, read-out: MIC.

Compound `N[C@@H]1CCN(c2c(F)cc3c(=O)c(C(=O)O)cn(C4CC4)c3c2Cl)C1` gave a Cmax in [1] of 3900 ng/mL. The compound also came in with a Urinary recovery in the data set with Rattus norvegicus [2] of 5%. The dose excreted in data set [3] amounted to 24%. The MIC is 6 ng/mL (≈ 0.0164 µM) against Enterobacter cloacae [4]; less than 0.006 µg/mL in the data set with Escherichia coli; 0.025 µg/mL (≈ 0.0683 µM) in the data set on Klebsiella pneumoniae (setting [12]); 0.05 µg/mL (≈ 0.137 µM) with Pseudomonas aeruginosa; 0.006 µg/mL (≈ 0.0164 µM) in the data set with Proteus vulgaris; 0.025 µg/mL (≈ 0.0683 µM) in the data set with Staphylococcus aureus [5]. The MIC in the data set with Streptococcus pyogenes stood at 0.1 µg/mL (≈ 0.273 µM); in data set [6] it was 0.05 µg/mL (≈ 0.137 µM); in the data set on Serratia marcescens, 0.025 µg/mL (≈ 0.0683 µM); in the data set on Enterococcus faecalis, 0.1 µg/mL (≈ 0.273 µM).
As for `N[C@@H]1CN(c2c(F)cc3c(=O)c(C(=O)O)cn(C4CC4)c3c2Cl)CC12CC2`, the MIC in the data set on Enterobacter cloacae [7] was 0.05 µg/mL (≈ 0.128 µM); with Escherichia coli, 0.05 µg/mL (≈ 0.128 µM); in the data set on Klebsiella pneumoniae (setting [12]), 0.05 µg/mL (≈ 0.128 µM); in the data set with Pseudomonas aeruginosa, 0.39 µg/mL (≈ 0.995 µM); in the data set on Proteus vulgaris, 0.05 µg/mL (≈ 0.128 µM); in the data set with Staphylococcus aureus [5], 0.1 µg/mL (≈ 0.255 µM). Besides, the MIC with Streptococcus pyogenes was found to be 0.78 µg/mL (≈ 1.99 µM); in data set [6] it was 0.1 µg/mL (≈ 0.255 µM); in the data set with Serratia marcescens it was 0.1 µg/mL (≈ 0.255 µM); with Enterococcus faecalis, 0.39 µg/mL (≈ 0.995 µM).
In the case of `N[C@H]1CCN(c2c(F)cc3c(=O)c(C(=O)O)cn([C@H]4C[C@H]4F)c3c2Cl)C1`, the MIC in the data set with Enterobacter cloacae [7] amounted to 0.025 µg/mL (≈ 0.0651 µM); with Escherichia coli, 0.013 µg/mL (≈ 0.0339 µM); against Klebsiella pneumoniae, 0.05 µg/mL (≈ 0.13 µM); with Pseudomonas aeruginosa, 0.1 µg/mL (≈ 0.261 µM); with Proteus vulgaris, 0.013 µg/mL (≈ 0.0339 µM); in the data set on Staphylococcus aureus [5] it was 0.025 µg/mL (≈ 0.0651 µM). The MIC came out at 0.2 µg/mL (≈ 0.521 µM) in the data set on Streptococcus pyogenes, 0.05 µg/mL (≈ 0.13 µM) in data set [6], 0.05 µg/mL (≈ 0.13 µM) in the data set on Serratia marcescens and 0.2 µg/mL (≈ 0.521 µM) in the data set with Enterococcus faecalis.
Compound `N[C@H]1CN(c2c(F)cc3c(=O)c(C(=O)O)cn(C4CC4)c3c2Cl)CC12CC2` had a Cmax in data set [1] of 3400 ng/mL. In the data set with Rattus norvegicus [2], this compound showed a Urinary recovery of 7%. Also, the dose excreted in data set [3] came out at 7%. Further, the MIC in the data set on Enterobacter cloacae [7] was 0.006 µg/mL (≈ 0.0153 µM); in the data set with Escherichia coli it was less than 0.006 µg/mL; with Klebsiella pneumoniae (setting [12]), 0.025 µg/mL (≈ 0.0638 µM); in the data set with Pseudomonas aeruginosa, 0.05 µg/mL (≈ 0.128 µM); with Proteus vulgaris, 0.006 µg/mL (≈ 0.0153 µM); in the data set on Staphylococcus aureus [5], 0.013 µg/mL (≈ 0.0332 µM). For the same compound, the MIC with Streptococcus pyogenes was 0.1 µg/mL (≈ 0.255 µM); in data set [6], 0.025 µg/mL (≈ 0.0638 µM); with Serratia marcescens, 0.025 µg/mL (≈ 0.0638 µM); in the data set on Enterococcus faecalis, 0.1 µg/mL (≈ 0.255 µM).
The compound `NC1CCN(c2c(F)cc3c(=O)c(C(=O)O)cn([C@@H]4C[C@@H]4F)c3c2Cl)C1` (single isomer, unassigned) returned a Cmax in data set [1] of 2000 ng/mL. Further, the dose excreted in [8] was found to be 12%. The Urinary recovery in the data set with Rattus norvegicus [9] is listed as 4%. The MIC was found to be 0.006 µg/mL (≈ 0.0156 µM) in the data set with Enterobacter cloacae [7]; 0.006 µg/mL (≈ 0.0156 µM) in the data set with Escherichia coli; 0.05 µg/mL (≈ 0.13 µM) with Klebsiella pneumoniae (setting [12]); 0.05 µg/mL (≈ 0.13 µM) with Pseudomonas aeruginosa; 0.006 µg/mL (≈ 0.0156 µM) in the data set with Proteus vulgaris; 0.013 µg/mL (≈ 0.0339 µM) against Staphylococcus aureus [10]. In addition, the minimal inhibitory concentration (MIC) with Streptococcus pyogenes came to 0.1 µg/mL (≈ 0.261 µM); in [11], 0.05 µg/mL (≈ 0.13 µM); with Serratia marcescens it was 0.025 µg/mL (≈ 0.0651 µM); with Enterococcus faecalis it was 0.2 µg/mL (≈ 0.521 µM).
With `N[C@H]1CN(c2c(F)cc3c(=O)c(C(=O)O)cn(C4C[C@H]4F)c3c2Cl)CC12CC2` (single isomer, unassigned), the MIC was determined as 0.05 µg/mL (≈ 0.122 µM) in the data set with Enterobacter cloacae [7]; 0.05 µg/mL (≈ 0.122 µM) in the data set on Escherichia coli; 0.1 µg/mL (≈ 0.244 µM) in the data set with Klebsiella pneumoniae (setting [12]); 0.78 µg/mL (≈ 1.9 µM) in the data set with Pseudomonas aeruginosa; 0.05 µg/mL (≈ 0.122 µM) in the data set on Proteus vulgaris; 0.1 µg/mL (≈ 0.244 µM) in the data set on Staphylococcus aureus [5]. The MIC in the data set with Streptococcus pyogenes came out at 0.2 µg/mL (≈ 0.488 µM); in [6] it was 0.2 µg/mL (≈ 0.488 µM); with Serratia marcescens, 0.5 µg/mL (≈ 1.22 µM); with Enterococcus faecalis, 0.39 µg/mL (≈ 0.952 µM).
Consider `N[C@H]1CN(c2c(F)cc3c(=O)c(C(=O)O)cn(C4C[C@@H]4F)c3c2Cl)CC12CC2` (single isomer, unassigned), for which the MIC with Enterobacter cloacae [7] was determined as 0.025 µg/mL (≈ 0.061 µM); with Escherichia coli, 0.025 µg/mL (≈ 0.061 µM); in the data set on Klebsiella pneumoniae (setting [12]) it was 0.05 µg/mL (≈ 0.122 µM); with Pseudomonas aeruginosa, 0.39 µg/mL (≈ 0.952 µM); in the data set with Proteus vulgaris, 0.025 µg/mL (≈ 0.061 µM); in the data set with Staphylococcus aureus [5], 0.1 µg/mL (≈ 0.244 µM). The MIC in the data set on Streptococcus pyogenes came to 0.1 µg/mL (≈ 0.244 µM); in [6], 0.1 µg/mL (≈ 0.244 µM); with Serratia marcescens, 0.1 µg/mL (≈ 0.244 µM); with Enterococcus faecalis, 0.78 µg/mL (≈ 1.9 µM).
